Assays:
LPAR1 = biological target: T1, LPAR1 (Homo sapiens, UniProt Q92633); test: Cell calcium flux assay (antagonist mode, LPA at EC80, FLIPR); format: cell-based; conditions: CHO-LPA1 cells, calcium flux, grades; read-out: LPAR1 IC50
T1 construct: expressed in transfected cells; host or cells: CHO (CHO-LPA1 cells)
Protocol: • 1) The test compound was diluted to a 400X stock solution with DMSO in a 384-well plate. • 2) 1 µl of compound solution from step 1 was transferred into 39 ul of assay buffer to prepare a 10X working solution in a 384-well plate using a Bravo automated liquid handling platform. • 3) CHO-LPA1 cells were cultured in F12 medium (10% FBS). • 4) When cells reached 80% confluence, the cells were dissociated using 0.25% trypsin-EDTA. • 5) Cell density was determined and the cells were diluted to 4x10e5/ml using F12 (10% FBS). • 6) 30 µl of the cell suspension was dispensed into a 384-well plate (corning 3764#) using a multidrop automated dispenser, resulting in 12,000 cells per well. The plate was incubated at 37°C with 5% CO2 for 18-20 hours. • 7) The medium was replaced with 25 uL of serum-free medium and incubated overnight. • 8) 10 ul of 3.5X loading dye was added to each well of the cell plate. The plate was incubated in the dark at 37°C with 5% CO2 for 0.5-1 hours. • 9) After incubation, 5 µl of the 10X working solution from step 2 was transferred to the cell plate. • 10) The cell plate was incubated in the dark at 25°C for 15 minutes, and then the calcium signals were read. • 11) A 5X agonist (LPA) working solution in 1X HBSS+20 mM HEPES+0.1% BSA was prepared in a 384-well assay plate (greiner 784075#), with at least 20 µl per well. The agonist concentration used in this assay was determined based on the dose-response curve from a prior agonist mode experiment, with the EC80 value serving as the final agonist concentration. • 12) Data were read and saved using FLIPR at room temperature with the specified settings. • 13) The signal values were plotted against compound concentrations, and the curve fitting was performed and the IC50 values were calculated using nonlinear regression analysis in GraphPad Prism software.
IC50 values are represented by grades A, B, C, and D, where A represents 0 < IC50 ≤ 10 nM, B represents 10 nM < IC50 ≤ 50 nM, C represents 50 nM < IC50 ≤ 100 nM, and D represents IC50 > 100 nM. Table 1 Antagonistic activity of the compounds of the present invention against LPAR1

[1] = Pharmacokinetic test in mice; format: in vivo, C57 mice; conditions: for pharmacokinetic characteristics in mice: conclusion in words; for Vd: read-out: Vdss
Protocol: 2.1 Experimental animals: Male C57 mice, 20-25 g, 6 mice/compound, purchased from Chengdu Ddossy Experimental Animals Co., Ltd.
2.2 Experimental design: On the day of the experiment, the C57 mice were randomly grouped according to their body weights. The animals were fasted with water available for 12-14 h one day before the administration, and were fed 4 h after the administration. Table 2. Administration information
Before and after administration, 0.06 mL of blood was taken from the orbit under isoflurane anaesthesia and placed in an EDTAK2 centrifuge tube. The tube was centrifuged at 5000 rpm at 4°C for 10 min, and plasma was collected. The blood collection time points for the intravenous administration group and oral gavage administration group were: 0 min, 5 min, 15 min, 30 min, 1 h, 2 h, 4 h, 6 h, 8 h, and 24 h. Before analysis and detection, all samples were stored at -80°C, and the samples were quantitatively analysed by LC-MS/MS. Table 3. Pharmacokinetic parameters of test compounds in plasma of mice

[2] = Pharmacokinetic test in rats; format: in vivo, SD rats; conditions: for pharmacokinetic characteristics in rats: conclusion in words; for Vd: read-out: Vdss
Protocol: 3.1. Experimental animals: Male SD rats, about 220 g, 6-8 weeks old, 6 rats/compound, purchased from Chengdu Ddossy Experimental Animals Co., Ltd.
3.2. Experimental design: On the day of the experiment, the SD rats were randomly grouped according to their body weights. The animals were fasted with water available for 12-14 h one day before the administration, and were fed 4 h after the administration. Table 4. Administration information
Before and after administration, 0.15 mL of blood was taken from the orbit under isoflurane anaesthesia and placed in an EDTAK2 centrifuge tube. The tube was centrifuged at 5000 rpm at 4°C for 10 min, and plasma was collected. Before analysis and detection, all samples were stored at -80°C, and the samples were quantitatively analysed by LC-MS/MS. Table 5. Pharmacokinetic parameters of test compound in plasma of rats

[3] = tested on: bleomycin (BLM)-induced idiopathic pulmonary fibrosis (IPF); test: Mouse model of bleomycin (BLM)-induced idiopathic pulmonary fibrosis (IPF); format: in vivo, C57BL/6j mice
From the text: • 1) Screening and grouping: A total of 48 nine-week-old male C57BL/6j mice (experimental animals) were used in this study. Prior to the start of the experiment, the animals were divided into a sham-operated group (Group 1, 8 mice) and a model group (40 mice) based on their body weights. One week after model establishment, the model group animals were further divided into […] subgroups (Groups 2-6, n = 8 per group) based on their body weights. • 2) Animal model establishment: On day 1 of the experiment, the animals were anesthetised with Zoletil (50 mg/kg) and Xylazine (10 mg/kg). Mice in the model group received an intratracheal (i.t.) injection of bleomycin at a dose of 0.66 mg/kg (1 U/kg) in a volume of 50 µL on day 1. Mice in the sham-operated group (Group 1, […]) received an intratracheal injection of normal saline in a volume of 50 µL. • 3) Mode of administration of test compounds: Starting from day 7 of the experiment, the animals were treated as follows. Group 3: compound 22 was administered by oral gavage at a dose of 1 mg/kg at a volume of 10 mL/kg body weight, twice daily. Group 4: compound 22 was administered by oral gavage at a dose of 3 mg/kg at a volume of 10 mL/kg body weight, twice daily. Group 5: BMS-986278 was administered by oral gavage at a dose of 10 mg/kg at a volume of 10 mL/kg body weight, twice daily. Group 6: nintedanib was administered by oral gavage at a dose of 60 mg/kg at a volume of 10 mL/kg body weight, once daily. Sham-operated group (Group 1) and model group (Group 2): the vehicle was administered by oral gavage at a volume of 10 mL/kg body weight, twice daily. • 4) Test indicators: Lung tissues were collected at the study endpoint for pathological evaluation.

Caco2 permeability test = format: in vitro ADME; conditions: human, Caco-2 monolayer, 2 hours at 37°C
Protocol: In the experiment, a monolayer of Caco-2 cells was used, and incubated in triplicate in a 96-well Transwell plate. A transport buffer solution (HBSS, 10 mM HEPES, pH 7.4 ± 0.05) containing the compound of the present invention (2 µM) or the control compound digoxin (10 µM), nadolol (2 µM) or metoprolol (2 µM) was added to the administration end hole on the apical side or basal side. A DMSO-containing transport buffer solution was added to the corresponding receiving end hole. After incubation for 2 hours at 37°C ± 1°C, the cell plate was removed, and an appropriate amount of samples was taken from both the apical side and basal side and transferred to a new 96-well plate. Subsequently, acetonitrile containing an internal standard was added to precipitate the protein. The samples were analysed using LC MS/MS, and the concentrations of the compound of the present invention and the control compound were determined. Concentration data were used to calculate apparent permeability coefficients for transport from the apical side to the basal side, and from the basal side to the apical side of the cell monolayer, and thus to calculate the efflux ratio. The integrity of the cell monolayer after 2 hours of incubation was evaluated by leakage of Lucifer Yellow.

[4] = mouse, iv, mice, i.v. (1 mg/kg), plasma
[5] = mouse, po, mice, i.g. (3 mg/kg), plasma
[6] = rat, iv, rats, i.v. (1 mg/kg), plasma
[7] = rat, po, rats, i.g. (3 mg/kg), plasma
[8] = 1 mg/kg oral gavage twice daily for 14 consecutive days
[9] = 3 mg/kg oral gavage twice daily for 14 consecutive days
[10] = 3 mg/kg oral gavage twice daily for 14 consecutive days, lung tissue at study endpoint

T1 sequence (Q92633 whole entry): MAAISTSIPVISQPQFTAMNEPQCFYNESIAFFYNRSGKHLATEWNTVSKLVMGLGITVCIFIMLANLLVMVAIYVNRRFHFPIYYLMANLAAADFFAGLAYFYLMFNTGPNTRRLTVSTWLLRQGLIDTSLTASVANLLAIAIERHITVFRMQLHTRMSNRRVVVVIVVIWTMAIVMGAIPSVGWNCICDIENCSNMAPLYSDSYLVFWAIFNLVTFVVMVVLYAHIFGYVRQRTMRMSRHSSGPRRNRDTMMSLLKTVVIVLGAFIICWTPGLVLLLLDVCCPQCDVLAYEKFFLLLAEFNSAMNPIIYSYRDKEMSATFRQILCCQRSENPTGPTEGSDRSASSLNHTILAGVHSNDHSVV

**Q.** What does the source list for `Cc1nc(-c2nnn(C)c2CNC(=O)OC2CC(=C(F)F)C2)ccc1O[C@H]1CCC[C@H](C(=O)O)C1` (stereo partly shown) [Compound 22]?
**A.** IC50 (LPAR1): < 10 nM; pharmacokinetic characteristics in mice [1]: excellent pharmacokinetic characteristics; C0 or Cmax ([1]; mice, i.g. (3 mg/kg), plasma): 1788 ± 180 ng/mL; C0 or Cmax ([1]; mice, i.v. (1 mg/kg), plasma): 1537 ± 290 ng/mL; AUC(0-t) [1, 4]: 1570 ± 74 ng·h/mL; clearance [1, 4]: 10.4 ± 0.55 mL/min/kg; Vd [1, 4]: 2.77 ± 0.16 L/kg; bioavailability ([1]; mouse, plasma, po, mice, i.g. (3 mg/kg)): ≥ 98%; AUC(0-t) [1, 5]: 5610 ± 1410 ng·h/mL; pharmacokinetic characteristics in rats [2]: good pharmacokinetic characteristics; AUC(0-t) [2, 6]: 1790 ± 321 ng·h/mL; clearance [2, 6]: 9.45 ± 1.7 mL/min/kg; Vd [2, 6]: 1.21 ± 0.17 L/kg; bioavailability ([2]; rat, plasma, po, rats, i.g. (3 mg/kg)): ≥ 98%; AUC(0-t) [2, 7]: 6710 ± 652 ng·h/mL; C0 or Cmax ([2]; rats, i.g. (3 mg/kg), plasma): 1630 ± 162 ng/mL; C0 or Cmax ([2]; rats, i.v. (1 mg/kg), plasma): 2428 ± 221 ng/mL; Modified Ashcroft score compared with the vehicle-treated model group [3, 8]: significantly reduced; fibrotic area in lung tissues compared with the vehicle-treated model group [3, 8]: significantly reduced; Modified Ashcroft score compared with the vehicle-treated model group [3, 9]: significantly reduced; fibrotic area in lung tissues compared with the vehicle-treated model group [3, 9]: significantly reduced; Modified Ashcroft score [3, 10]: less than 4; fibrotic area [3, 10]: less than 20%; efficacy relative to BMS-986278 (10 mg/kg) and nintedanib (60 mg/kg) ([3]; dose of 1 mg/kg): comparable to that of BMS-986278 (10 mg/kg) and nintedanib (60 mg/kg); efficacy relative to BMS-986278 and nintedanib ([3]; dose of 3 mg/kg): superior efficacy to both BMS-986278 and nintedanib

**Q.** Which results are given for `C=C1CC(OC(=O)NCc2c(-c3ccc(O[C@H]4CCC[C@H](C(=O)O)C4)c(C)n3)nnn2C)C1` [Compound 26]?
**A.** IC50 (LPAR1): < 10 nM; pharmacokinetic characteristics in mice [1]: excellent pharmacokinetic characteristics; C0 or Cmax ([1]; mice, i.g. (3 mg/kg), plasma): 659 ± 55 ng/mL; C0 or Cmax ([1]; mice, i.v. (1 mg/kg), plasma): 2268 ± 193 ng/mL; AUC(0-t) [1, 4]: 1580 ± 50 ng·h/mL; clearance [1, 4]: 10.3 ± 0.52 mL/min/kg; Vd [1, 4]: 2.83 ± 0.53 L/kg; AUC(0-t) [1, 5]: 2290 ± 102 ng·h/mL; pharmacokinetic characteristics in rats [2]: good pharmacokinetic characteristics; AUC(0-t) [2, 6]: 1870 ± 246 ng·h/mL; clearance [2, 6]: 8.91 ± 1.2 mL/min/kg; Vd [2, 6]: 1.21 ± 0.5 L/kg; AUC(0-t) [2, 7]: 2880 ± 913 ng·h/mL; C0 or Cmax ([2]; rats, i.g. (3 mg/kg), plasma): 1144 ± 145 ng/mL; C0 or Cmax ([2]; rats, i.v. (1 mg/kg), plasma): 2745 ± 354 ng/mL; efflux ratio at 2 h, 2 µM (Caco2 permeability test; pH 7.4): 6.79; Papp A→B at 2 h, 2 µM (Caco2 permeability test; pH 7.4, read-out: Average apparent permeability coefficient A-B): 4.31 ×10⁻⁶ cm/s; Papp B→A at 2 h, 2 µM (Caco2 permeability test; pH 7.4, read-out: Average apparent permeability coefficient B-A): 29.2 ×10⁻⁶ cm/s

Reference: patent publication EP4775571A1, “LPAR1 ANTAGONIST AND USE THEREOF” (Haisco Pharmaceutical Group Co., Ltd., priority 2023, dated 2025)
